Measurements taken from patent US11084826B2, “RSV antiviral pyrazolo- and triazolo-pyrimidine compounds” (Janssen Sciences Ireland Unlimited Company, priority 2015, dated 2021).

Columns and labels:
rgRSV224 virus = experiment: Antiviral activity: inhibition of rgRSV224 (GFP-expressing RSV) replication in HeLa cells, GFP expression read-out; format: cell-based, respiratory syncytial virus (RSV); details: human respiratory syncytial virus, HeLa, read-out: RSV HELA pEC50, rgRSV224 virus (MOI=1) in HeLa cells, GFP read-out (converted)
Experimental: (§1) Black 384-well clear-bottom microtiter plates (Corning, Amsterdam, The Netherlands) were filled via acoustic drop ejection using the echo liquid handler (Labcyte, Sunnyvale, Calif.). 200 nL of compound stock solutions (100% DMSO) were transferred to the assay plates. 9 serial 4-fold dilutions of compound were made, creating per quadrant the same compound concentration. The assay was initiated by adding 10 μL of culture medium to each well (RPMI medium without phenol red, 10% FBS-heat inactivated, 0.04% gentamycin (50 mg/mL). All addition steps are done by using a multidrop dispenser (Thermo Scientific, Erembodegem, Belgium). Next, rgRSV224 virus (MOI=1) diluted in culture medium was added to the plates. rgRSV224 virus is an engineered virus that includes an additional GFP gene (Hallak LK, Spillmann D, Collins PL, Peeples Me. Glycosaminoglycan sulfation requirements for respiratory syncytial virus infection; Journal of virology (2000), 74(22), 10508-13) and was in-licensed from the NIH (Bethesda, Md., USA). Finally, 20 μL of a HeLa cell suspension (3,000 cells/well) were plated. Medium, virus- and mock-infected controls were included in each test. The wells contain 0.05% DMSO per volume. Cells were incubated at 37° C. in a 5% CO2 atmosphere. Three days post-virus exposure, viral replication was quantified by measuring GFP expression in the cells by an in house developed MSM laser microscope (Tibotec, Beerse, Belgium). The EC50 was defined as the 50% inhibitory concentration for GFP expression. In parallel, compounds were incubated for three days in a set of white 384-well microtiter plates (Corning) and the cytotoxicity of compounds in HeLa cells was determined by measuring the ATP content of the cells using the ATPlite kit (Perkin Elmer, Zaventem, Belgium) according to the manufacturer's instructions. The CC50 was defined as the 50% concentration for cytotoxicity.

[1] = Cytotoxicity in HeLa cells, ATP content measured with the ATPlite kit; format: cell-based; details: human, TOX HELA pCC50
Experimental: as §1

SMILES	EC50 (rgRSV224 virus) [nM]	melting point [°C]	CC50 at 3 days [1] [nM]
CCc1cc(C(=O)N2CCCCC[C@H]2C)nc2cc(-c3ccc(-c4ncc(C(=O)O)s4)cc3F)nn12 (racemic) [Compound F43]	61.7	177.53	42700
C[C@@H]1CCCCCN1C(=O)c1cc(C2(C)CC2)n2nc(-c3ccc(OCC(=O)O)cc3F)cc2n1 (racemic) [Compound F48]	437	204.93	> 100000
C[C@@H]1CCCCCN1C(=O)c1cc(C2(C)CC2)n2nc(-c3ccc4cc(C(=O)O)c(=O)oc4c3F)cc2n1 (racemic) [Compound F49]	26.3	218.14	57500
C[C@@H]1CCCCCN1C(=O)c1cc(C2(C)CC2)n2nc(-c3ccc4c(c3F)OCC(C(=O)O)=C4)cc2n1 (racemic) [Compound F51]	27.5	261.88	57500
C[C@@H]1CCCCCN1C(=O)c1cc(C2CCC2)n2nc(-c3ccc4cc(C(=O)O)c(=O)oc4c3F)cc2n1 (racemic) [Compound F53]	36.3	175.52	60300
CCc1cc(C(=O)N2CCc3sccc3C2C)nc2cc(-c3ccc(-c4ccc(C(=O)O)cn4)cc3F)nn12 (racemic) [Compound F60]	45.7	270.54	> 25100
CCc1cc(C(=O)N2CCCCC[C@H]2C)nc2cc(-c3ccc4c(c3F)OC[C@@H](C(=O)O)C4)nn12 (racemic) [Compound F65]	141	186.2	> 100000
C[C@@H]1c2ccccc2CCN1C(=O)c1cc(C2CC2)n2nc(-c3cccc(/C=C/C(=O)O)c3F)cc2n1 [Compound M27]	11.7	202.04	
CCc1cc(C(=O)N2CCCCCC2C)nc2cc(-c3ccc(C4CC4C(=O)O)cc3F)nn12 (stereo not shown) [Compound O1]	123		> 25100
C[C@@H]1CCCCCN1C(=O)c1cc(C2CC2)n2nc(-c3cccc([C@H]4C[C@@H]4C(=O)O)c3F)cc2n1 [Compound O6]	148		97700
CCc1cc(C(=O)N2CCCCC[C@H]2C)nc2cc(-c3ccc(N4CC(C(=O)O)C4)cc3F)nn12 [Compound W1]	64.6		> 25100
CCc1cc(C(=O)N2CCCCC[C@H]2C)nc2cc(-c3ccc(N4CCC[C@@H](C(=O)O)C4)cc3F)nn12 [Compound W4]	105		89100
CCc1cc(C(=O)N2CCCCC[C@H]2C)nc2cc(-c3ccc(N4CCC[C@H](C(=O)O)C4)cc3F)nn12 [Compound W5]	89.1		95500
CCc1cc(C(=O)N2CCCCC[C@H]2C)nc2cc(-c3ccc(NC4(C(=O)O)CC4)cc3F)nn12 [Compound W16]	269		> 100000
CCc1cc(C(=O)N2CCCCC[C@H]2C)nc2cc(-c3ccc(N(C)CC(=O)O)cc3F)nn12 [Compound W19]	263		> 100000
CCc1cc(C(=O)N2CCCCC[C@H]2C)nc2cc(-c3ccc(N(C)c4cc(C(=O)O)nn4C)cc3F)nn12 [Compound W21]	1020		21900
CCc1cc(C(=O)N2CCCCC[C@H]2C)nc2cc(-c3ccc(-n4cnc(C(=O)O)c4)cc3F)nn12 [Compound W29]	363		> 100000
C[C@@H]1CCCCCN1C(=O)c1cc(C2(C)CC2)n2nc(-c3ccc(N4CC[C@H](C(=O)O)C4)cc3F)cc2n1 [Compound W30]	17.4		50100
C[C@@H]1CCCCCN1C(=O)c1cc(C2CCC2)n2nc(-c3ccc(N4CC[C@H](C(=O)O)C4)cc3F)cc2n1 [Compound W31]	12.6		49000
C[C@@H]1c2ccsc2CCN1C(=O)c1cc(C2(C)CC2)n2nc(-c3ccc(N4CC[C@H](C(=O)O)C4)cc3F)cc2n1 [Compound W44]	8.71		49000
CCc1cc(C(=O)N2CCCCC[C@H]2C)nc2cc(-c3ccc(-c4cc(=O)[nH]o4)cc3F)nn12 [Compound X1]	93.3		> 25100
